Data taken from patent publication US20250144067A1, “PERSONALIZED STARVATION THERAPY FOR CANCER” (Faeth Therapeutics, Inc., priority 2021, published 2025).
Where a name gives a salt, the structure may show the parent alone. Read-outs that look alike come from different tables or passages of the source.

Key:
[1] = tested on: NCI-H292 lung cancer cells; test: FDA drug screening, complete media vs cholesterol-free media without statin (TABLE 1); format: cell-based, human
[2] = tested on: NCI-H292 lung cancer cells; test: FDA drug screening, complete media vs cholesterol-free media with simvastatin (TABLE 2); format: cell-based, human
[3] = Complete minus Cholesterol-free, greater than 0 enhanced anti-cancer activity, about 0 neutral, below 0 antagonist
[4] = NCI-H292 cells, FDA drug library screen, cholesterol-free media without statin
[5] = NCI-H292 cells, FDA drug library screen, complete media
[6] = NCI-H292 cells, FDA drug library screen, cholesterol-free media with simvastatin 0.04 μM
[7] = complete media vs cholesterol-free media + simvastatin (0.04 μM), >0 enhanced anti-cancer activity, about 0 neutral, <0 antagonist
[8] = NCI-H292 cells, cholesterol-free media without statin
[9] = complete vs cholesterol-free media, […]
[10] = NCI-H292 cells, FDA library drug in cholesterol-free media with simvastatin 0.04 μM
[11] = NCI-H292 cells, FDA library drug in complete media
[12] = Complete minus Cholesterol-free, >0 enhanced anti-cancer activity, about 0 neutral, <0 antagonist
[13] = NCI-H292 cells, cholesterol-free media without statin, FDA drug library screen
[14] = NCI-H292 cells, complete media, FDA drug library screen
[15] = complete media minus cholesterol-free media + simvastatin, >0 enhanced anti-cancer activity, about 0 neutral, <0 antagonist
[16] = complete vs cholesterol-free media, greater than 0 enhanced anti-cancer activity, about 0 neutral, below 0 antagonists
[17] = Complete minus Cholesterol-free, […]
[18] = NCI-H292 cells, cholesterol-free media with simvastatin 0.04 μM, […]
[19] = NCI-H292 cells, complete media, […]
[20] = complete media minus cholesterol-free media + simvastatin, […]
[21] = NCI-H292 cells, cholesterol-free media with simvastatin 0.04 μM, FDA drug library screen (TABLE 2)
[22] = NCI-H292 cells, complete media, FDA drug library screen (TABLE 2)
[23] = complete media minus cholesterol-free media + simvastatin (0.04 μM), >0 enhanced anti-cancer activity, about 0 neutral, <0 antagonist

Molecule: CN(C)CC/C=C1/c2ccccc2COc2ccc(CC(=O)O)cc21 [Olopatadine (hydrochloride)]
- Difference [1, 3]: −0.13
- Cholesterol-free [1, 4]: 1.018
- Complete [1, 5]: 0.8917
- Cholesterol-free media + simvastatin (0.04 μM) [2, 6]: 0.9644
- Complete Media [2, 5]: 0.8474
- Difference [2, 7]: −0.12

Molecule: Rilmenidine (hemifumarate)
- Cholesterol-free [1, 8]: 1.211
- Complete ([1]; NCI-H292 cells, complete media): 0.771
- Difference [1, 9]: −0.44
- Cholesterol-free media + simvastatin (0.04 μM) [2, 10]: 1.87
- Complete Media [2, 11]: 1.431
- Difference ([2]; complete media vs cholesterol-free media + simvastatin (0.04 μM), […]): −0.44

Molecule: CC(=O)NS(=O)(=O)c1ccc(N)cc1 [Sulfacetamide (Sodium)]
- Difference [1, 12]: 0.04
- Cholesterol-free [1, 13]: 0.8669
- Complete [1, 14]: 0.9047
- Cholesterol-free media + simvastatin (0.04 μM) [2, 6]: 1.134
- Complete Media [2, 5]: 1.384
- Difference [2, 15]: 0.25

Molecule: Trelagliptin (succinate)
- Cholesterol-free [1, 8]: 1.469
- Complete ([1]; NCI-H292 cells, complete media): 1.135
- Difference [1, 16]: −0.33
- Cholesterol-free media + simvastatin (0.04 μM) [2, 6]: 1.757
- Complete Media [2, 5]: 1.617
- Difference [2, 7]: −0.14

Molecule: CCCOc1ccc2c(c1)CC[C@@H]1[C@@H]2CC[C@]2(C)[C@@H](OC)CC[C@@H]12 [Promestriene]
- Difference [1, 17]: −0.77
- Cholesterol-free ([1]; NCI-H292 cells in cholesterol-free media without statin): 1.741
- Complete ([1]; NCI-H292 cells in complete media): 0.9695
- Cholesterol-free media + simvastatin (0.04 μM) [2, 18]: 0.8092
- Complete Media [2, 19]: 0.9277
- Difference [2, 20]: 0.12

Molecule: O=C(Nc1ccc(Cl)cc1)Nc1ccc(Cl)c(Cl)c1 [Triclocarban]
- Difference [1, 12]: −0.05
- Cholesterol-free [1, 13]: 0.8072
- Complete [1, 14]: 0.7602
- Cholesterol-free media + simvastatin (0.04 μM) [2, 21]: 1.029
- Complete Media [2, 22]: 0.9601
- Difference [2, 23]: −0.07

Molecule: C=C[C@]1(C)C[C@@H](OC(=O)CS[C@@H]2C[C@H]3CC[C@@H](C2)N3C)[C@]2(C)[C@H](C)CC[C@]3(CCC(=O)[C@H]32)[C@@H](C)[C@@H]1O [Retapamulin]
- Difference [1, 3]: −0.18
- Cholesterol-free [1, 4]: 1.002
- Complete [1, 5]: 0.8221
- Cholesterol-free media + simvastatin (0.04 μM) [2, 21]: 1.667
- Complete Media [2, 22]: 1.638
- Difference [2, 23]: −0.03

Molecule: CCOC(=O)CC(=O)N1CCSC1COc1ccccc1OC (centres unmarked) [Moguisteine]
- Cholesterol-free [1, 13]: 0.7084
- Complete [1, 14]: 1.262
- Difference ([1]; complete vs cholesterol-free media, >0 enhanced anti-cancer activity, about 0 neutral, <0 antagonist): 0.55
- Cholesterol-free media + simvastatin (0.04 μM) [2, 21]: 0.9351
- Complete Media [2, 22]: 0.879
- Difference [2, 23]: −0.06

Molecule: Clc1ccc2c(N3CCN(CCCN4CCN(c5ccnc6cc(Cl)ccc56)CC4)CC3)ccnc2c1
- Cholesterol-free [1, 8]: 1.226
- Complete ([1]; NCI-H292 cells, complete media): 0.8255
- Difference [1, 9]: −0.40
- Cholesterol-free media + simvastatin (0.04 μM) [2, 6]: 0.9008
- Complete Media [2, 5]: 1.047
- Difference [2, 20]: 0.15

Molecule: Pixantrone (dimaleate)
- Cholesterol-free [1, 8]: 1.33
- Complete ([1]; NCI-H292 cells, complete media): 0.8848
- Difference [1, 16]: −0.45
- Cholesterol-free media + simvastatin (0.04 μM) [2, 6]: 1.334
- Complete Media [2, 5]: 1.212
- Difference [2, 7]: −0.12

Molecule: C/C=C(/C)C(=O)O[C@H]1C(C)=C[C@]23C(=O)[C@@H](C=C(CO)[C@@H](O)[C@]12O)[C@H]1[C@@H](C[C@H]3C)C1(C)C [Ingenol Mebutate]
- Cholesterol-free [1, 8]: 0.6991
- Complete ([1]; NCI-H292 cells, complete media): 0.3918
- Difference [1, 9]: −0.31
- Cholesterol-free media + simvastatin (0.04 μM) [2, 18]: 0.2962
- Complete Media [2, 19]: 0.4169
- Difference [2, 20]: 0.12

Molecule: N=C(N)c1ccc(OCCCCCOc2ccc(C(=N)N)cc2)cc1.O=S(=O)(O)CCO.O=S(=O)(O)CCO [Pentamidine (isethionate)]
- Difference [1, 3]: −0.17
- Cholesterol-free [1, 4]: 0.6432
- Complete [1, 5]: 0.4688
- Cholesterol-free media + simvastatin (0.04 μM) ([2]; NCI-H292 cells, cholesterol-free media with simvastatin 0.04 μM, cell growth value in FDA drug screen): 0.3285
- Complete Media ([2]; NCI-H292 cells, complete media, cell growth value in FDA drug screen): 0.4548
- Difference [2, 15]: 0.13

Molecule: COC(=O)c1ccc2c(c1)NC(=O)/C2=C(\Nc1ccc(N(C)C(=O)CN2CCN(C)CC2)cc1)c1ccccc1 [Nintedanib esylate]
- Difference [1, 12]: 0.02
- Cholesterol-free [1, 13]: 0.5114
- Complete [1, 14]: 0.5279
- Cholesterol-free media + simvastatin (0.04 μM) [2, 21]: 0.7218
- Complete Media [2, 22]: 0.6577
- Difference [2, 23]: −0.06

Molecule: CS(=O)(=O)c1cc(F)cc2c3c(n(Cc4ccc(Cl)cc4)c12)[C@@H](CC(=O)O)CC3 [Laropiprant]
- Cholesterol-free [1]: 1.338
- Complete [1]: 1.092
- Difference [1]: −0.25
- Cholesterol-free media + simvastatin (0.04 μM) [2]: 0.8957
- Complete Media [2]: 1.455
- Difference [2]: 0.56

Molecule: C[N+](C)(C)C[C@H](O)CC(=O)[O-] [L-Carnitine]
- Difference [1, 3]: −0.11
- Cholesterol-free [1, 4]: 1.053
- Complete [1, 5]: 0.9402
- Cholesterol-free media + simvastatin (0.04 μM) [2, 6]: 0.9127
- Complete Media [2, 5]: 0.8221
- Difference [2, 7]: −0.09

Molecule: NC(=O)OC[C@H](N)Cc1ccccc1 [Solriamfetol (hydrochloride)]
- Difference [1, 17]: −0.02
- Cholesterol-free [1, 13]: 1.017
- Complete [1, 14]: 1
- Cholesterol-free media + simvastatin (0.04 μM) [2, 6]: 0.997
- Complete Media [2, 5]: 1.138
- Difference [2, 20]: 0.14

Molecule: Nc1ccn([C@@H]2O[C@H](CO)[C@@H](O)C2(F)F)c(=O)n1 [Gemcitabine (hydrochloride)]
- Difference [1, 12]: −0.04
- Cholesterol-free [1, 13]: 0.05262
- Complete [1, 14]: 0.01403
- Cholesterol-free media + simvastatin (0.04 μM) [2, 21]: 0.04392
- Complete Media [2, 22]: 0.02306
- Difference [2, 23]: −0.02

Molecule: CN1[C@@H]2CC[C@H]1C[C@@H](OC(=O)C(CO)c1ccccc1)C2 (some centres unmarked) [Atropine (sulfate monohydrate)]
- Complete [1]: 1.139
- Difference [1]: 0.08
- Cholesterol-free media + simvastatin (0.04 μM) [2]: 0.6465
- Complete Media [2]: 0.6938
- Difference [2]: 0.05

Molecule: Maraviroc
- Cholesterol-free [1, 13]: 0.6337
- Complete [1, 14]: 0.8933
- Difference [1, 9]: 0.26
- Difference [2, 20]: 0.03

Molecule: CCOC(CN1CCN(CC(C)C(=O)c2ccccc2)CC1)c1ccccc1 (centres unmarked) [Eprazinone (dihydrochloride)]
- Difference [1, 3]: −0.09
- Cholesterol-free [1, 4]: 1.265
- Cholesterol-free media + simvastatin (0.04 μM) [2, 21]: 0.9386
- Complete Media [2, 22]: 0.9227
- Difference [2, 23]: −0.02

Molecule: Dimemorfan (phosphate)
- Difference [1, 17]: −0.08
- Cholesterol-free [1, 4]: 0.9351
- Complete [1, 5]: 0.8552
- Cholesterol-free media + simvastatin (0.04 μM) [2, 21]: 0.9385
- Complete Media [2, 22]: 0.8687
- Difference ([2]; complete media minus cholesterol-free media + simvastatin (0.04 μM), […]): −0.07

Molecule: CCC(=O)NS(=O)(=O)c1ccc(-c2c(-c3ccccc3)noc2C)cc1 [Parecoxib]
- Difference [1, 12]: −0.20
- Cholesterol-free [1, 8]: 0.9171
- Complete ([1]; NCI-H292 cells, complete media): 0.7131
- Cholesterol-free media + simvastatin (0.04 μM) ([2]; NCI-H292 cells, drug in cholesterol-free media with simvastatin 0.04 μM): 0.9747
- Complete Media ([2]; NCI-H292 cells, drug in complete media): 0.7244
- Difference [2, 7]: −0.25

Molecule: C/C(O)=C(\C#N)C(=O)Nc1ccc(C(F)(F)F)cc1 [Teriflunomide]
- Difference [1, 3]: −0.16
- Cholesterol-free [1, 4]: 1.092
- Complete [1, 5]: 0.9318
- Cholesterol-free media + simvastatin (0.04 μM) [2, 10]: 1.712
- Complete Media [2, 11]: 0.9665
- Difference [2, 7]: −0.75
